DC50 data for five compounds are collected here from patent US12599672B2, “KRAS proteolysis targeting chimeras” (PAQ Therapeutics Inc., priority 2023, dated 2026).

Common to all, as to assay type: cell-based
In test [1] the target is T1, KRAS G12D (Homo sapiens, UniProt P01116, G12D).
T1 construct: AsPc-1-KRAS (G12D)-HiBit-KI cell (Pharmaron); host or cells: AsPc-1-KRAS (G12D)-HiBit-KI cells (HiBiT knock-in at the endogenous KRAS locus)
The test is described as follows: KRAS G12D HiBit assay. Particulars: AsPc-1-KRAS (G12D)-HiBit-KI cell, compound treatment for 24 hours, absolute DC50. The essentials: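 Cells were treated for 24 h with compounds in a 3-fold, 10-point dilution series from a 0.3 mM DMSO stock, then equilibrated 15 min at room temperature. KRAS G12D HiBiT levels were read by luminescence after lytic Nano-Glo HiBiT reagent with LgBiT; inhibition calculated relative to 0.1% DMSO high control.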

Test [2] concerns the target T2, KRAS (Homo sapiens, UniProt P01116).
T2 construct: endogenous in cells; host or cells: KE39 (KRAS amplified) cells
The test is described as follows: KRASamp MSD assay. Particulars: KE39 (KRAS amplified) cells, treated with test compounds for 24 hr, MSD readout of KRAS degradation. On the procedure:
KE39 (KRAS amplified) cells were cultured in RPMI 1640 medium (Gibco, 11875093), seeded into 96 well plate and treated with test compounds for 24 hr. The cells were washed with PBS and lysed in plate for 1 hr at 4° C. with agitation in RIPA buffer (Cat No. BP-115D) supplemented with protease and phosphatase inhibitor cocktail. The lysates were loaded into MSD plate coated with KRAS capture antibody (LSBio, C175665, 1:1000) for 1 h at RT with agitation. The plate was then washed three times with TBST and incubated with KRAS detection antibody (Abcam, Ab275876. 1:2000) for 1 h at RT. After washing three times with TBST, the plate was incubated with secondary detection antibody GAR (1:500) for 1 hr at RT followed with 3×TBST washing. 2×MSD reading buffer was added into individual wells and the plate was finally read by MSD reader (MSD, SQ 120 MM). The recombinant WT KRAS protein was used for standard curve generation and protein quantification. The degradation activity was calculated using the following formula: […]
DC50 was calculated by fitting the curve using GraphPad Prism v8.0.2 (analysis 263): […]

Test [3] has as its target T3, KRAS G12V (Homo sapiens, UniProt P01116, G12V).
T3 construct: SW620-KRAS (G12V)-HiBit-KI cell (Pharmaron); host or cells: SW620-KRAS (G12V)-HiBit-KI cells (HiBiT knock-in at the endogenous KRAS locus)
Put plainly: KRAS G12V HiBit assay. To be noted: SW620-KRAS (G12V)-HiBit-KI cells, compound treatment for 24 hours, class symbols. Summed up: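 HiBiT-tagged KRAS G12V cells treated 24 h with compound in a 3-fold, 10-point series (0.3 mM DMSO stock); lytic HiBiT reagent with LgBiT added after 15 min room-temperature equilibration. Degradation calculated against 0.1% DMSO high control.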
Background: The HiBiT peptide binds its large partner to form an active luciferase.

Where [4] appears, read: numeric bounds given in place of class symbols.

T2 sequence (P01116 1-188 isoform P01116-2): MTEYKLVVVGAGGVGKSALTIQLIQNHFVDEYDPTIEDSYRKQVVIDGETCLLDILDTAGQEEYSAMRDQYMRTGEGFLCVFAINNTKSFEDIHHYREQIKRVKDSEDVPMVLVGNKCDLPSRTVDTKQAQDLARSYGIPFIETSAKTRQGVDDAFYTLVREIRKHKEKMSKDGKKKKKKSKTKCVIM
T1 sequence (P01116 1-188 isoform P01116-2 G12D): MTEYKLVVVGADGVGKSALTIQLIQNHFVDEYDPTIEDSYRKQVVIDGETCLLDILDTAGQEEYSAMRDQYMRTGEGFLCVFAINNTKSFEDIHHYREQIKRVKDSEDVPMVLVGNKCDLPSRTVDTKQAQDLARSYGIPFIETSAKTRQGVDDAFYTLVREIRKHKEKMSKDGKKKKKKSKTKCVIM
T3 sequence (P01116 1-188 isoform P01116-2 G12V): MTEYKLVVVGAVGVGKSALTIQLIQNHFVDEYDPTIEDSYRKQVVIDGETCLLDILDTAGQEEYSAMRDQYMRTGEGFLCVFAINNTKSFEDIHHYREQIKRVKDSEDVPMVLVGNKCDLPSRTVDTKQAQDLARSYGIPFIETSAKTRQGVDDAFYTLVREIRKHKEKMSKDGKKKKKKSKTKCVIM

In the case of `C#Cc1c(F)ccc2cc(O)cc(-c3ncc4c(N5CCC[C@@](C)(O)C5)nc(OC[C@@]56CCCN5[C@H](COC(=O)N5CCC7(CCC(N8CCC(c9ccc%10c(c9)n(C)c(=O)n%10C9CCC(=O)NC9=O)CC8)CC7)CC5)CC6)nc4c3F)c12` (stereo partly drawn) [Compound 413, ((3S,7aS)-7a-(((7-(8-ethynyl-7-fluoro-3-hydroxynaphthalen-1-yl)-8-fluoro-4-((R)-3-hydroxy-3-methylpiperidin-1-yl)pyrido[4,3-d]pyrimidin-2-yl)oxy)methyl)hexahydro-1H-pyrrolizin-3-yl)methyl 9-(4-(1-(2,6-dioxopiperidin-3-yl)-3-methyl-2-oxo-2,3-dihydro-1H-benzo[d]imidazol-5-yl)piperidin-1-yl)-3-azaspiro[5.5]undecane-3-carboxylate], the figures for the DC50 in test [1] (class symbols), in test [2] and in test [3] were less than 100 nM, less than 1 nM and less than 10 nM, respectively.

As for `C#Cc1c(F)ccc2cc(O)cc(-c3ncc4c(N5CCC[C@@](C)(O)C5)nc(OC[C@@]56CCCN5[C@H](COC(=O)N5CCCC7(C5)CN(C5CCN(c8ccc9c(c8)n(C)c(=O)n9C8CCC(=O)NC8=O)CC5)C7)CC6)nc4c3F)c12` (stereo partly drawn) [Compound 328, ((3S,7aS)-7a-(((7-(8-ethynyl-7-fluoro-3-hydroxynaphthalen-1-yl)-8-fluoro-4-((R)-3-hydroxy-3-methylpiperidin-1-yl)pyrido[4,3-d]pyrimidin-2-yl)oxy)methyl)hexahydro-1H-pyrrolizin-3-yl)methyl 2-(1-(1-(2,6-dioxopiperidin-3-yl)-3-methyl-2-oxo-2,3-dihydro-1H-benzo[d]imidazol-5-yl)piperidin-4-yl)-2,6-diazaspiro[3.5]nonane-6-carboxylate], the DC50 in test [1] (setting [4]) is greater than 100 nM; in test [2] it was no less than 10 nM; in test [3] it was greater than 100 nM.

Consider `C#Cc1c(F)ccc2cc(O)cc(-c3ncc4c(N5CCC[C@@](C)(O)C5)nc(OCC5(CN6CCC(N7CCC(c8ccc9c(C%10CCC(=O)NC%10=O)nn(C)c9c8)CC7)CC6)CC5)nc4c3F)c12` (stereo partly drawn) [Compound 58], for which the DC50 in test [1] (class symbols) was less than 100 nM; in test [2], no less than 10 nM; in test [3], less than 10 nM.

As for `CCc1c(F)ccc2cc(O)cc(-c3ncc4c(N5CC[C@H](O)C5)nc(OC[C@@]56CCCN5[C@H](COC(=O)N5CCC7(CC5)CC(N5CCC(c8ccc9c(c8)n(C)c(=O)n9C8CCC(=O)NC8=O)CC5)C7)CC6)nc4c3F)c12` (stereo partly drawn) [Compound 349, ((3S,7aS)-7a-(((7-(8-ethyl-7-fluoro-3-hydroxynaphthalen-1-yl)-8-fluoro-4-((S)-3-hydroxypyrrolidin-1-yl)pyrido[4,3-d]pyrimidin-2-yl)oxy)methyl)hexahydro-1H-pyrrolizin-3-yl)methyl 2-(4-(1-(2,6-dioxopiperidin-3-yl)-3-methyl-2-oxo-2,3-dihydro-1H-benzo[d]imidazol-5-yl)piperidin-1-yl)-7-azaspiro[3.5]nonane-7-carboxylate], the DC50 in test [1] (setting [4]) was greater than 100 nM; in test [2], 1 to 10 nM; in test [3] it was 10 to 100 nM.

Turning to `CCc1c(F)ccc2cc(O)cc(-c3ncc4c(N5CCC[C@@](C)(O)C5)nc(OC[C@]56CCCN5[C@H](COC(=O)N5CCC(N7CCC(c8ccc9c(c8)n(C)c(=O)n9C8CCC(=O)NC8=O)C7)CC5)CC6)nc4c3F)c12` (stereo partly drawn) [Compound 337, ((3S,7aR)-7a-(((7-(8-ethyl-7-fluoro-3-hydroxynaphthalen-1-yl)-8-fluoro-4-((R)-3-hydroxy-3-methylpiperidin-1-yl)pyrido[4,3-d]pyrimidin-2-yl)oxy)methyl)hexahydro-1H-pyrrolizin-3-yl)methyl 4-(3-(1-(2,6-dioxopiperidin-3-yl)-3-methyl-2-oxo-2,3-dihydro-1H-benzo[d]imidazol-5-yl)pyrrolidin-1-yl)piperidine-1-carboxylate], the DC50 in test [1] (class symbols) is less than 100 nM; in test [2], 1 to 10 nM; in test [3] it was 10 to 100 nM.
